Patent US8541464B2, “Treatment of atrial fibrillation” (HUYA Biosciences International LLC, priority 2009, dated 2013)
“And” between values parts separate entries of the source, which are not always exact repeats. Equal values may be shown once.

Columns and labels:
Cynomolgus monkeys = assay: Cardiovascular safety in anesthetized Cynomolgus monkeys, escalating 15-minute IV infusions; type: in vivo, Cynomolgus monkey
Protocol: Female Cynomolgus monkeys were administered morphine (2 mg/kg subcutaneously) prior to induction of anesthesia. Monkeys were anesthetized with 1% α-chloralose (100 mg/kg intravenous), followed by a constant infusion of α-chloralose 40 mg/kg/hr, IV which was reduced to 30 mg/kg/hr approximately 92 to 98 min pre treatment due to low blood pressure. Monkeys were placed on a heating pad set to maintain the animal's body temperature at approximately 37° C. Body temperature was monitored throughout the experiment via a rectal thermometer or via the Swan Ganz (thermodilution catheter) once implanted. Monkeys were intubated and placed on a ventilator supplemented with oxygen to maintain oxygenation within the normal physiological range. The animals were mechanically ventilated at a rate of 12 breaths/minute and a pressure of 17-18 cm H2O. The following parameters were regularly monitored in order to ensure proper ventilation of the animals but are not reported: SpO2, inspiratory and expiratory CO2, inspiratory O2 and respiratory rate.
A Swan Ganz (thermodilution catheter) was inserted into the right femoral vein via phlebotomy and advanced into the pulmonary artery for cardiac output measurements. A catheter was inserted in the left femoral artery via an arteriotomy for blood gas determination. Another catheter was inserted in the left femoral vein for blood collection for toxicokinetic evaluation. Finally, an incision was also performed on the left side of the neck to expose the left carotid artery and an electronic dual pressure sensor catheter (Millar) was placed via arteriotomy and advanced into the left ventricle. The catheter was positioned to simultaneously collect left ventricle blood pressure measurements as well as aortic pressure. In addition, a temporary catheter was placed in any of the cephalic veins for administration of Lactated Ringers at 10 mL/kg/hr throughout the course of the experiment.
Following surgical preparation, hemodynamic and electrocardiographic parameters were allowed to stabilize for at least 15 minutes. The vehicle control and test article were then administered, and hemodynamic, electrocardiographic parameters were monitored. Histamine and plasma PK data was obtained.

post-MI beagle dogs = assay: Hemodynamic effects in anesthetized post-MI sudden cardiac death model; type: in vivo, beagle dog; conditions: 15 mg/kg
Protocol: A hemodynamic effects study of sulcardine sulfate in an anesthetized post-MI sudden cardiac death model study was also performed. The study population consisted of ten purpose-bred, female beagle dogs, weighing 10.0-12.0 Kg. The animals had left ventricular wall ischemic injury induced by a 90-minute occlusion of the left anterior descending coronary artery followed by reperfusion. Five animals were treated with sulcardine sulfate (15 mg/kg) infused intravenously over 10 minutes, and the remaining five animals were vehicle dogs treated with 0.9% sodium chloride solution (placebo). Lowest mean arterial blood pressure was measured every 15 minutes for a total period of 120 minutes after treatment.

Substance: sulcardine sulfate
- heart rate (HR) change (relatively stable) (Cynomolgus monkeys; 10 mg/kg): ≤ 10%
- histamine levels (Cynomolgus monkeys; 10 mg/kg): no appreciable increases
- PR interval increase (Cynomolgus monkeys; 10 mg/kg, per animal): +18% and +30%
- increase of QRS from baseline (Cynomolgus monkeys; 10 mg/kg, per animal): 11% and 26%
- conduction abnormality (Cynomolgus monkeys; 30 mg/kg infusion, animal 1501A): right bundle branch block (RBBB)
- mean pulmonary arterial pressure increase (Cynomolgus monkeys; 30 mg/kg, at the completion of infusion): up to +245%
- conduction abnormality (Cynomolgus monkeys; 90 mg/kg infusion / shortly before death, animal 1602B): sino-atrial block with a ventricular escape rhythm and RBBB
- mortality (Cynomolgus monkeys; 90 mg/kg, before completion of the 15-minute infusion): death in both animals
- QRS interval increase from baseline (Cynomolgus monkeys; 90 mg/kg, per animal): 88% and 133%
- QTcB increase from baseline (Cynomolgus monkeys; 90 mg/kg, per animal): 78 ms and 112 ms
- PR interval increase (Cynomolgus monkeys; 30 and 90 mg/kg): Further increases were noted
- histamine levels (Cynomolgus monkeys; Animal No. 1501A, after 10 minutes of the 30 mg/kg infusion): transient increases
- histamine levels (Cynomolgus monkeys; Animal No. 1602B, any dose levels): No appreciable increases
- time after completion of infusion by which arterial blood pressure was not different from baseline or placebo (post-MI beagle dogs): ≤ 50 min
- mean arterial blood pressure compared to baseline values (post-MI beagle dogs; at fifteen, thirty, and forty-five minutes after completing a 10 minute infusion, P<0.05): significantly lower
